Assay results from ChEMBL document CHEMBL1201862, “PubChem BioAssay data set” (2004).
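All cell lines were grown in 96-well plates and treated with compound for 48 hours. GI50 = concentration required for 50% inhibition of growth.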 The source made the active and inactive calls. No stated cut-off is given here; in the data, active = GI50 up to about 1.1 µM and inactive = higher.

Legend:
Experiment in all cases: growth of human tumour cells (NCI), 48 h
[1] = tested on: RXF 393
[2] = tested on: HL-60
[3] = tested on: SK-OV-3
[4] = tested on: HT-29
[5] = tested on: M14
[6] = tested on: 786-0
[7] = tested on: OVCAR-5
[8] = tested on: LOX IMVI
[9] = tested on: CAKI-1
[10] = tested on: Malme-3M
[11] = tested on: HOP-62
[12] = tested on: U-251
[13] = tested on: HCT-116
[14] = tested on: COLO 205
[15] = tested on: IGROV-1

Measured: GI50

CN(C(=O)c1ccco1)C(=S)N1CCN(c2ccccc2)CC1
inactive: [1] > 100 µM | [2] > 100 µM | [3] > 100 µM | [4] > 100 µM | [5] > 100 µM | [6] > 100 µM | [7] > 100 µM | [8] > 100 µM | [9] > 100 µM | [10] > 100 µM | [11] > 100 µM | [12] > 100 µM | [13] > 100 µM | [14] > 100 µM | [15] > 100 µM

COc1ccc(NC(=O)CC(=O)N/N=C(\C)c2cc3ccccc3oc2=O)cc1
inactive: [1] > 100 µM | [2] > 100 µM | [3] > 100 µM | [4] > 100 µM | [5] > 100 µM | [6] > 100 µM | [8] > 100 µM | [10] > 100 µM | [11] > 100 µM | [12] > 100 µM | [13] > 100 µM | [14] > 100 µM | [15] > 100 µM

O=C(CC1(O)C(=O)Nc2c(Cl)ccc(Cl)c21)c1ccc(F)cc1 (stereo unspecified)
inactive: [1] 29.5 µM | [2] 28.4 µM | [3] > 100 µM | [4] 40.4 µM | [5] 38.8 µM | [6] 31.2 µM | [7] > 100 µM | [8] 32.7 µM | [9] 44.7 µM | [10] 69.5 µM | [11] 46.7 µM | [12] 67.3 µM | [14] 96.6 µM

OC12CCC3(OC4CCCCO4)c4ccccc4C3C1c1ccccc12 (stereo unspecified)
inactive: [1] 44.6 µM | [2] 30.3 µM | [3] > 100 µM | [4] 43.9 µM | [5] 67.6 µM | [6] 67.5 µM | [8] 38.8 µM | [10] > 100 µM | [11] > 100 µM | [12] 53.8 µM | [13] 35 µM | [14] 55.1 µM

C/C(=N/O)c1ccc2c(c1)/C(=N/O)c1cc(/C(C)=N/O)ccc1-2
inactive: [1] 23 µM | [2] 18.4 µM | [3] 21.4 µM | [4] 12.6 µM | [5] 16.4 µM | [6] 17.2 µM | [7] 17.4 µM | [8] 13 µM | [9] 35.8 µM | [10] 11 µM | [11] 13.4 µM | [12] 15.3 µM | [13] 20.1 µM | [14] 17.8 µM | [15] 21.1 µM

COc1ccc(NC(=O)CC/C(CC(=O)c2ccccc2Cl)=N\Nc2nnc(C)n2N)cc1
inactive: [1] > 100 µM | [2] > 100 µM | [3] > 100 µM | [4] > 100 µM | [6] > 100 µM | [7] > 100 µM | [8] > 100 µM | [9] > 100 µM | [10] > 100 µM | [12] > 100 µM | [13] > 100 µM | [14] > 100 µM | [15] > 100 µM
